Data as given in US7763585B2, “Methods for inhibiting tumor cell proliferation” (priority 2003, dated 2010).
pIC50: −log10 of the molar value. Read-outs that look alike come from different tables or passages of the source.

Assays:
[1] = system: Stat3-independent luciferase reporter (pRLSRE); assay: Stat3-independent renilla luciferase reporter in NIH3T3/v-Src/pRLSRE; assay type: cell-based, mouse; conditions: FIG. 4
Protocol: FIGS. 4A-B show inhibition of Stat3-mediated gene expression in intact cells by platinum complexes. v-Src-transformed mouse fibroblasts that stably express Stat3-dependent (NIH3T3/v-Src/pLucTKS3) and Stat3-independent (NIH3T3/v-Src/pRLSRE) luciferase reporters were treated with platinum complexes for the indicated times. Cytosolic extracts were then prepared from cells for Stat3-dependent firefly luciferase activity (FIG. 4A) and Stat3-independent renilla luciferase measurements (FIG. 4B). Values are the means and S.D. of five independent assays. […]
Cytosolic lysates preparation from fibroblasts for luciferase assays or from baculovirus-infected Sf-9 insect cells have been previously described (Turkson et al., 1998; Turkson et al., 2001; Turkson et al., 1999; Zhang et al., 2000). Luciferase assays were performed as outlined in the supplier's (Promega) manual and measured with a luminometer. […]

[2] = target: T1, Stat3:Stat3 (Mus musculus, UniProt P42227); assay: EMSA, disruption of Stat3:Stat3 DNA-binding activity in vitro (hSIE probe); assay type: biochemical; conditions: for Level of DNA-binding activity of Stat3 (EMSA): EGF-stimulated fibroblast nuclear extracts, 30 min preincubation, FIG. 1A; for pIC50: nuclear extracts pre-incubated 30 min at room temperature, read-out: IC50 for disruption of STAT DNA-binding activity in vitro, Stat3:Stat3
T1 construct: endogenous in cells; host or cells: EGF-stimulated fibroblasts (nuclear extract)
Protocol: (§1) FIGS. 1A-D are photographs showing EMSA analyses of DNA-binding activities and effects of platinum complexes. Nuclear extracts containing activated Stat1, Stat3 and Stat5 are treated with the indicated concentrations of platinum complex ISSCPA-1, ISSCPA-3, ISSCPA-7, or PtCl4 for 30 min at room temperature prior to incubation with radiolabeled oligonucleotide probes. […] Positions of complexes of DNA with STAT, E2F1 or NFκB (p65, p50) in gel are labeled. Control lanes represent nuclear extracts that are not pre-incubated with platinum complexes.
(§2) Nuclear extracts were prepared from cell lines and used for EMSA as previously described (Turkson et al., 1998; Yu et al., 1995; Garcia et al., 1997). In some cases, cells were pre-treated with platinum complexes for the indicated times prior to harvesting. Where cells were stimulated with EGF (6 ng/ml), duration of treatment was 15 min. Nuclear extracts were pre-incubated with compounds for 30 min at room temperature prior to incubation with radiolabeled probe. The ^32P-radiolabeled oligonucleotide probes used are hSIE (high affinity sis-inducible element, m67 variant, 5′-[…]-3′) (SEQ ID NO:1) that binds both Stat1 and Stat3 (Garcia et al., 1997; Wagner et al., 1990), MGFe (mammary gland factor element from the bovine β-casein gene promoter, 5′-AGATTTCTAGGAATTCAA-3′) (SEQ ID NO:2) that binds Stat1 and Stat5 (Gouilleux et al., 1995; Seidel et al., 1995), the NF-κB binding oligo (5′-[…]-3′) (SEQ ID NO:3), and the oligonucleotide sequence from the DHFR promoter that binds E2F1.
(§3) Platinum compounds were evaluated for inhibitory activity against STAT DNA-binding in vitro.

[3] = system: Stat5; assay: EMSA, Stat5 DNA-binding activity in vitro (MGFe probe); assay type: biochemical, mouse; conditions: FIG. 1B
Protocol: as §1, §2, §3

[4] = target: T2, Stat1:Stat3 (Mus musculus, UniProt P42225+P42227); assay: EMSA, disruption of Stat1:Stat3 DNA-binding activity in vitro (hSIE probe); assay type: biochemical
T2 construct: endogenous in cells; host or cells: EGF-stimulated fibroblasts (nuclear extract)
Protocol: as §1, §2, §3

[5] = target: T3, Stat1:Stat1 (Mus musculus, UniProt P42225); assay: EMSA, disruption of Stat1:Stat1 DNA-binding activity in vitro (hSIE probe); assay type: biochemical; conditions: for Level of DNA-binding activity of Stat1 (EMSA): EGF-stimulated fibroblast nuclear extracts, 30 min preincubation, FIG. 1A
T3 construct: endogenous in cells; host or cells: EGF-stimulated fibroblasts (nuclear extract)
T3 sequence (P42225 2-749 limits assumed): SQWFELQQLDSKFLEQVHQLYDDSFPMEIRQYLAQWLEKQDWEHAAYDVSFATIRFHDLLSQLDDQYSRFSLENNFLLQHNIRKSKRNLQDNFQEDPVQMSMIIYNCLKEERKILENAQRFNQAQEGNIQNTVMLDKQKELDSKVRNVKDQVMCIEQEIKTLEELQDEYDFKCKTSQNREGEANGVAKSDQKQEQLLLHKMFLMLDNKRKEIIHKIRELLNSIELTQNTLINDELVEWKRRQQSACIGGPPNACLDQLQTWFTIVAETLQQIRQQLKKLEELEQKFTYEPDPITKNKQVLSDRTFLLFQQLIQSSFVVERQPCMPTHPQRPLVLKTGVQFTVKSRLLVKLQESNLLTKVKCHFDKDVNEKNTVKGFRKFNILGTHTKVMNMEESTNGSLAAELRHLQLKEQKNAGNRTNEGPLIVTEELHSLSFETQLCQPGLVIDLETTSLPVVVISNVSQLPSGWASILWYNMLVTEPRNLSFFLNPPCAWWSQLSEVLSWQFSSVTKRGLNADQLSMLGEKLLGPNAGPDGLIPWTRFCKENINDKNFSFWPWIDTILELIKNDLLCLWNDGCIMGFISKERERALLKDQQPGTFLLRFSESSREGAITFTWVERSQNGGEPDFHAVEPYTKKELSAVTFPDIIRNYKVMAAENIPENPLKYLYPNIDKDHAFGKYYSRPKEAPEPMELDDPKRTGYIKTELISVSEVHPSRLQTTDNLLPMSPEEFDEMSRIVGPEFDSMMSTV
Protocol: as §1, §2, §3

[6] = system: NIH3T3v-Src; assay: Cell proliferation of v-Src-transformed fibroblasts; assay type: cell-based, mouse; conditions: FIG. 6
Protocol: (§4) FIGS. 6A and 6B show the effects of platinum complexes on cell proliferation and viability. […] Values are the mean and S.D. of 3-4 independent determinations.
Proliferating cells were counted by phase-contrast microscopy for viable cells (using trypan blue exclusion. TUNEL staining was carried according to supplier's instructions to detect apoptotic cells. Cells (NIH3T3 or NIH3T3/v-Src) were first treated with or without compounds 24-48 h prior to staining.
(§5) The effects of platinum complexes on cell proliferation measured by [^3H]-thymidine incorporation were investigated.

[7] = system: human tumor cells that do not contain constitutively-active Stat3; assay: Cell proliferation ([3H]-thymidine incorporation) of human tumor cells without constitutively-active Stat3; assay type: cell-based; conditions: FIG. 6; reduction in growth rate but not growth inhibitory
Description: as §4, §5

T1 sequence (P42227 2-770 limits assumed): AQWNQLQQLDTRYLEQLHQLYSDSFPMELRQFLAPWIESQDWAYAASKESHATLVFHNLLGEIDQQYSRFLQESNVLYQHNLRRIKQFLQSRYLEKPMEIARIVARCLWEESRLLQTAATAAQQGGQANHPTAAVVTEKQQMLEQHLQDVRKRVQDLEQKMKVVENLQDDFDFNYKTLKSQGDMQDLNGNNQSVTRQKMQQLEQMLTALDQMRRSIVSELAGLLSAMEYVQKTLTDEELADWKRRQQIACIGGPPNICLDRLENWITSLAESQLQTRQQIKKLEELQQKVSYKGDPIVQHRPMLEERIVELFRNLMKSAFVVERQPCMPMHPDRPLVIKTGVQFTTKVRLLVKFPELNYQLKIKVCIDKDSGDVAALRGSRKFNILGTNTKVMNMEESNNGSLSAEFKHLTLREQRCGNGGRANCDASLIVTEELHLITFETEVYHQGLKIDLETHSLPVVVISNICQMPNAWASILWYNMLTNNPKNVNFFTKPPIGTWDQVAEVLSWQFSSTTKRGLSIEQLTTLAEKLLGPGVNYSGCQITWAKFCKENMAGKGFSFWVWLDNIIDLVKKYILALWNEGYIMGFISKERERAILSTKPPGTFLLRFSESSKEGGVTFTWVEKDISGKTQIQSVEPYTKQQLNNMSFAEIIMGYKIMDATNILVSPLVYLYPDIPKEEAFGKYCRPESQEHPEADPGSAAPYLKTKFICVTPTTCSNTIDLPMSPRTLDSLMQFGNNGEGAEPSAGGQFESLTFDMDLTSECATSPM
T2 sequence (P42227 2-770 limits assumed, one chain of several): as the sequence (P42227 2-770 limits assumed) above

SMILES | Induction of Stat3-independent luciferase activity [1] | Level of DNA-binding activity of Stat3 (EMSA) [2] | pIC50 [2] | Inhibitory effect on Stat5 DNA-binding activity (EMSA) [3] | pIC50 ([4]; nuclear extracts pre-incubated 30 min at room temperature, hSIE probe, read-out: IC50 for disruption of STAT DNA-binding activity in vitro, Stat1:Stat3) | Level of DNA-binding activity of Stat1 (EMSA) ([5]; hSIE probe) | pIC50 ([5]; nuclear extracts pre-incubated 30 min at room temperature, hSIE probe, read-out: IC50 for disruption of STAT DNA-binding activity in vitro, Stat1:Stat1) | Growth of Src-transformed mouse fibroblasts ([3H]-thymidine incorporation) [6] | Growth of human tumor cells that do not contain constitutively-active Stat3 [7] | pIC50 [4] | pIC50 [5]
[NH2][Pt]([NH2])([Cl])([Cl])([Cl])[N+](=O)[O-] [ISS CPA-7] | little or no effect | dose-dependent reduction | 5.82 | much reduced inhibitory effect | 5.46 | dose-dependent reduction | 5.40 | strongly inhibited | marginal effect | – | –
O=[N+]([O-])[Pt]1([Cl])([Cl])([Cl])[NH]CC[NH]1 [ISS CPA-1] | little or no effect | dose-dependent reduction | 5.30 | much reduced inhibitory effect | – | dose-dependent reduction | – | strongly inhibited | marginal effect | 5.03 | 4.70
